The test system of experiment [1] is HLA-A*02:01 transgenic mouse. As to the kind of experiment: Test 7: in vivo adjuvant activity, vaccine d (Peptide SEQ ID No. 5), IFNγ ELISPOT. As to conditions: added to vaccine d; 330 ng per body, once; FIG. 4. As to the method: Evaluation of In Vivo Adjuvant Activity in HLA-A*02:01 Transgenic Mouse
The in vivo adjuvant activity of the compound of Example 1 was evaluated in the following procedure. To a vaccine prepared by mixing Peptide SEQ ID No. 5 prepared in Reference example 5 with Montanide ISA 51 VG (hereinafter, referred to as “vaccine d”) was added the compound prepared in Example 1 to prepare a vaccine. The vaccine was administered to a HLA-A*02:01 transgenic mouse, and the adjuvant activity of the vaccine was evaluated by the method of testing antigen-specific CTL induction. The VLQELNVTV in Peptide SEQ ID No. 5 corresponds to an antigen peptide derived from an HLA-A*02:01-restricted Proteinase-3 protein.
The character for inducing CTLs specific to the antigen peptide (SEQ ID No. 5) by vaccine d was evaluated by measuring whether IFNγ can be produced upon stimulation of splenocytes from the mouse with the peptide. In addition, the character for exerting in vivo adjuvant activity by the compound in Example 1 was evaluated by comparing the number of CTLs induced by vaccine d and the number of CTLs induced by the vaccine prepared by adding the compound prepared in Example 1 to vaccine d, and checking presence or absence of the increase on the number.
Specifically, Peptide of SEQ ID No. 5 was dissolved in DMSO, and then diluted with water for injection to concentrations of 2 mg/mL. […]

Experiment [2] has as its system HLA-A*24:02 transgenic mouse. The experiment in a line: Test 20: in vivo adjuvant activity, vaccine o (Compound of formula 5), IFNγ ELISPOT. As to conditions: added to vaccine o; 0.4 nmol per body, twice; FIG. 25. Here is the method:
Evaluation of In Vivo Adjuvant Activity in HLA-A*24:02 Transgenic Mouse
The in vivo adjuvant activity of the compound of Example 1 was evaluated in the following procedure. To a vaccine prepared by mixing Compound of formula 5 prepared in Reference example 22 with a preliminarily-emulsified composition (hereinafter, referred to as “vaccine o”) was added the compound prepared in Example 1 to prepare a vaccine. The vaccine was administered to a HLA-A*24:02 transgenic mouse, and the adjuvant activity of the vaccine was evaluated by the method of testing antigen-specific CTL induction.
Specifically, Compound of formula 5 was dissolved in DMSO, and then diluted with water for injection to concentrations of Compound of formula 5 of 3 mg/mL. The prepared compound dilution was mixed with an equal volume of the preliminary emulsified composition prepared like Test 4 to give an emulsified product, vaccine o. Vaccine o was injected to mice intradermally at the tail base area in an amount for administering 300 μg of Compound of formula 5 per body. […] Then, after removal of the supernatant from the wells, stained spots on the ELISPOT plate were counted.

Turning to `CCCCCNc1nc(N)nc(C)c1Cc1ccc(CN(C)CCOCCOCCOCCOCCO)cc1OC` [Example 1, 1-(4-{[2-amino-4-methyl-6-(pentylamino)pyrimidin-5-yl]methyl}-3-methoxyphenyl)-2-methyl-5,8,11,14-tetraoxa-2-azahexadecan-16-ol·trifluoroacetate], the “CTL counts responsive to Peptide of SEQ ID No. 5 compared with adding no compound” value in experiment [1] was “more”. Also, the “CTL counts responsive to Peptide SEQ ID No. 2 compared with adding no compound” value in experiment [2] is given as “more”.
